In patent US20210181180A1, “METHOD FOR IDENTIFYING MALODOUR COUNTERACTANTS” (TAKASAGO INTERNATIONAL CORPORATION, priority 2016, published 2021):

Molecular target: T1, OR4E2 (Homo sapiens, UniProt Q8NGC2, Q234R/V118M)
T1 construct: expressed in transfected cells; host or cells: HEK293T cells expressing hRTP1s, transiently transfected with pcDNA5-OR4E2 and pNL(NlucP/CRE/Hygro)
T1 sequence (Q8NGC2 1-313 V118M/Q234R): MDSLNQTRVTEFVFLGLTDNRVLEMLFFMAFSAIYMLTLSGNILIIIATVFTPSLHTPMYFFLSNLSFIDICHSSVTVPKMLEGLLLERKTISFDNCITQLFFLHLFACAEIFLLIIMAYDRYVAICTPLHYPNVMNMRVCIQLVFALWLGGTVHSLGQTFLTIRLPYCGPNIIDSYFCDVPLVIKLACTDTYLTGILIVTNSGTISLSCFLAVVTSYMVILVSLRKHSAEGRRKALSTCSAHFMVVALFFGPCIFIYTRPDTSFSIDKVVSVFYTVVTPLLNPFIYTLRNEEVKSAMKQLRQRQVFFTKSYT
Assay: OR4E2 CRE-NanoLuc luciferase reporter assay in transiently transfected HEK293T cells
Type: cell-based
Conditions: for response of OR4E2 to increasing concentrations of sulphur odorant (OR4E2 activation): seven concentrations 3-300 μM, 4 hours stimulation, luciferase activity, FIGS. 1A and 1B
Procedure: The experiments were performed using HEK293T cells (available e.g. from GE Healthcare) […] expressing the auxiliary protein hRTP1s, essential for efficient receptor trafficking to the plasma membrane (NPL 10, NPL 11; and NPL 12). The cell line was maintained in Dulbecco's modified Eagle Medium (DMEM, Euroclone) supplemented with 10% FBS (Fetal Bovine Serum, Euroclone cat. ECS0180L), 1% Penicillin/Streptomycin (Euroclone cat. B3001D), 50 μg/mL G418, […], and 10 μg/mL Zeocin.
The cDNA for OR4E2 was generated by custom gene synthesis (LifeTechnologies). The receptor DNA was then subcloned in frame 3′ from a transmembrane, localization epitope into a pcDNA5 expression vector (NPL 13). The correct identity of the receptor was checked by automated sequencing.
All sulphur odorants were prepared as 100 mM stock solutions using DMSO as a solvent and stored at −20″C. Copper(II) sulfate was prepared as an aqueous 30 mM stock solution. […]
The cDNA for the OR4E2 receptor was co-transfected with pNL(NlucP/CRE/Hygro) (Promega). […] The enzyme is about 100-fold brighter than either firefly (Photinus pyralis) or Renilla reniformis luciferase using a novel substrate, furimazine, to produce high intensity, glow-type luminescence. […]
24 hours post-transfection the medium was removed from the transfected cells and 30 μL of Tyrode's buffer containing the diluted sulphur odorant were added over 4 hours at 37° C. The cells were then transferred into an automated fluorometric imaging plate reader (FLIPR Tetra (registered trademark), Molecular Devices). […]
The data obtained from different well replicates (n=4) were analysed with Excel, ScreenWorks, and SigmaPiot 11, The responses of the receptor to the sulphur odorants were divided by the mean responses of the receptor towards Tyrode's buffer (fold of change: FOC). The mean and standard deviation of the resulting FOC values were calculated and plotted in vertical bar charts or concentration-response curves fitted by the SigmaPlot 11 software. […]

Compound | response of OR4E2 to increasing concentrations of sulphur odorant (OR4E2 activation) | OR4E2 activator (used at 300 μM as activating sulphur odorant in Example 2)
CC(C)(S)CCO [3-mercapto-3-methylbutanol] | positive effect | 
CSCSC [2,4-dithiapentane] |  | OR4E2 activator
C=CCSSSCC=C [diallyl trisulfide] | positive effect | 
